Source: patent US12209072B2, “Cyclopentyl acids as LPA antagonists” (BRISTOL-MYERS SQUIBB COMPANY, priority 2018, dated 2025)

Each molecule was assayed against T1, human LPA1 (Homo sapiens, UniProt Q92633) (assay: LPA1 functional antagonist assay (LPA-induced calcium flux)). Conditions: CHO cells overexpressing human LPA1; inhibition of calcium flux induced by 10 nM LPA; read-out: hLPA1 IC50.
T1 construct: expressed in transfected cells; host or cells: Chinese hamster ovary (CHO) cells
T1 sequence (Q92633 whole entry): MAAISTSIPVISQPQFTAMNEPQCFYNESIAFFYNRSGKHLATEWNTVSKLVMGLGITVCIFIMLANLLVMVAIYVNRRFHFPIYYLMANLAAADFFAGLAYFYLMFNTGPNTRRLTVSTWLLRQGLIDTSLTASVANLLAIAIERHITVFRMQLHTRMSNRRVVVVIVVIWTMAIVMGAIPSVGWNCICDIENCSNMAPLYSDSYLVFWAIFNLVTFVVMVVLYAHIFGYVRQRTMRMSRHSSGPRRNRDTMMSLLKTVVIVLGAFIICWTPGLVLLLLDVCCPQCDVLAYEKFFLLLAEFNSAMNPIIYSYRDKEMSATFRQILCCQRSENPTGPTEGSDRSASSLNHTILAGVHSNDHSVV
Assay type: cell-based
Method in brief: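 CHO cells overexpressing human LPA1, loaded with calcium dye, given compound (0.08 nM–5 μM final, 0.5% DMSO) for 20 min at room temperature in HBSS/HEPES with 0.1% fatty-acid-free BSA, then stimulated with 10 nM LPA. IC50 defined as 50% inhibition of LPA-induced calcium flux, from 4-parameter logistic fit.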
In the case of `Cc1nc(-c2nnn(C)c2COC(=O)N(C)CC2CCC2)cnc1O[C@@H]1CC[C@@H](C(=O)O)C1` (racemic) [Example 13, (±)-Trans-3-((5-(5-((((cyclobutylmethyl)(methyl)carbamoyl)oxy)methyl)-1-methyl-1H-1,2,3-triazol-4-yl)-3-methylpyrazin-2-yl)oxy)cyclopentanecarboxylic Acid], the IC50 is reported as 618 nM. `Cc1noc(-c2ccc(O[C@H]3CC[C@H](C(=O)O)C3)cc2)c1COC(=O)N(C)CCC(C)C` (racemic) [Example 72, (±)-trans-3-{4-[3-methyl-4-({[methyl(3-methylbutyl)carbamoyl]oxy}methyl)-1,2-oxazol-5-yl]phenoxy}cyclopentane-1-carboxylic acid] gave an IC50 of 254 nM. `Cc1nc(-c2nnn(C)c2COC(=O)N(C)C2(C)CC2)ccc1O[C@H]1CC[C@H](CC(=O)O)C1` (racemic) [Example 57, (±)-trans-2-[3-({2-methyl-6-[1-methyl-5-({[methyl(1-methylcyclo-propyl)carbamoyl]oxy}methyl)-1H-1,2,3-triazol-4-yl]pyridin-3-yl}oxy)cyclopentyl]acetic acid] showed an IC50 of 295 nM. `CCCN(C)C(=O)OCc1c(-c2ccc(O[C@H]3CC[C@H](CC(=O)O)C3)c(C)n2)nnn1C` (racemic) [Example 54, (±)-trans-2-[3-({2-methyl-6-[1-methyl-5-({[methyl(propyl)carba-moyl]oxy}methyl)-1H-1,2,3-triazol-4-yl]pyridin-3-yl}oxy)cyclopentyl]acetic acid] showed an IC50 of 292 nM. For `Cc1nc(-c2nnn(C)c2COC(=O)N(C)CC2CCC2)ccc1OC[C@H]1CC[C@@H](C(=O)O)C1` (single isomer, unassigned) [Example 32], the IC50 was 9.7 nM. Molecule `Cc1nc(-c2nnn(C)c2COC(=O)N(C)CCCCF)ccc1O[C@H]1CC[C@H](CC(=O)O)C1` (racemic) [Example 64, (±)-trans-2-[3-({6-[5-({[(4-fluoro-butyl)(methyl)carbamoyl]oxy}methyl)-1-methyl-1H-1,2,3-triazol-4-yl]-2-methylpyridin-3-yl}oxy)cyclo-pentyl]acetic acid] has an IC50 of 165 nM. In the case of `Cc1nc(-c2nnn(C)c2COC(=O)N(C)CC2CCC2)ccc1O[C@H]1CC[C@H](C(=O)O)C1` (racemic) [Example 75, (±)-trans-3-({6-[5-({[(cyclobutyl-methyl)(methyl)carbamoyl]oxy}methyl)-1-methyl-1H-1,2,3-triazol-4-yl]-2-methylpyridin-3-yl}oxy)cyclo-pentane-1-carboxylic acid], the IC50 is reported as 42.5 nM. `Cc1nc(-c2nnn(C)c2COC(=O)N(C)CCCF)ccc1O[C@H]1CC[C@H](CC(=O)O)C1` (racemic) [Example 65, (±)-trans-2-[3-({6-[5-({[(3-fluoro-propyl)(methyl)carbamoyl]oxy}methyl)-1-methyl-1H-1,2,3-triazol-4-yl]-2-methylpyridin-3-yl}oxy)cyclo-pentyl]acetic acid] was tested, and the IC50 was 944 nM. `Cc1nc(-c2nnn(C)c2COC(=O)N2CCC3(CC3)C2)ccc1O[C@H]1CC[C@H](CC(=O)O)C1` (racemic) [Example 67, (±)-trans-2-[3-({6-[5-({5-azaspiro[2.4]heptane-5-carbonyloxy}methyl)-1-methyl-1H-1,2,3-triazol-4-yl]-2-methylpyridin-3-yl}oxy)cyclopentyl]acetic acid] was tested, and the IC50 was 770 nM. `Cc1noc(-c2ccc(OC3CCC(C(=O)O)C3)cn2)c1CNc1nccc(-c2ccccc2)n1` (single isomer, unassigned) [Example 44] gave an IC50 of 158 nM. Molecule `Cc1nc(-c2nnn(C)c2CNc2nccc(C(C)C)n2)ccc1OC[C@@H]1CC[C@H](C(=O)O)C1` (relative stereo) [Example 39, cis-3-(((6-(5-(((4-isopropylpyrimidin-2-yl)amino)methyl)-1-methyl-1H-1,2,3-triazol-4-yl)-2-methylpyridin-3-yl)oxy)methyl)cyclopentane-1-carboxylic acid] has an IC50 of 164 nM. `Cc1noc(-c2ccc(O[C@@H]3CC[C@@H](CC(=O)O)C3)cn2)c1CNc1nccc(-c2ccccn2)n1` (racemic) [Example 29, (±)2-(Trans-3-((6-(3-methyl-4-(((4-(pyridin-2-yl)pyrimidin-2-yl)amino)methyl)isoxazol-5-yl)pyridin-3-yl)oxy)cyclopentyl)acetic Acid] was tested, and the IC50 was 54 nM. Molecule `Cc1nc(-c2nnn(C)c2COC(=O)N(C)CC2CC2)ccc1O[C@H]1CCC[C@H]1CC(=O)O` (racemic) [Example 89, (±)-cis-2-(2-((6-(5-((((cyclopropyl-methyl)(methyl)carbamoyl)oxy)methyl)-1-methyl-1H-1,2,3-triazol-4-yl)-2-methylpyridin-3-yl)oxy)cyclopentyl)acetic acid] has an IC50 of 291 nM. `CCC1(N(C)C(=O)OCc2c(-c3ccc(O[C@H]4CC[C@H](CC(=O)O)C4)c(C)n3)nnn2C)CC1` (racemic) [Example 58, (±)-trans-2-[3-({6-[5-({[(1-ethylcyclo-propyl)(methyl)carbamoyl]oxy}methyl)-1-methyl-1H-1,2,3-triazol-4-yl]-2-methylpyridin-3-yl}oxy)cyclo-pentyl]acetic acid] showed an IC50 of 479 nM. `CCCN(C)C(=O)OCc1c(-c2ccc(O[C@H]3CCC[C@H]3CC(=O)O)c(C)n2)nnn1C` (racemic) [Example 88, (±)-cis-2-(2-((2-methyl-6-(1-methyl-5-(((methyl(propyl)carbamoyl)oxy)methyl)-1H-1,2,3-triazol-4-yl)pyridin-3-yl)oxy)cyclopentyl)acetic acid] gave an IC50 of 425 nM. `CCCC1(N(C)C(=O)OCc2c(-c3ccc(O[C@@H]4CC[C@@H](CC(=O)O)C4)c(C)n3)nnn2C)CC1` (racemic) [Example 10, (±)-Trans-2-(3-((2-methyl-6-(1-methyl-5-(((methyl(1-propylcyclopropyl)carbamoyl)oxy)methyl)-1H-1,2,3-triazol-4-yl)pyridin-3-yl)oxy)cyclopentyl)acetic Acid] was tested, and the IC50 was 372 nM. `CCCN(C)C(=O)OCc1c(-c2ccc(O[C@@H]3CC[C@@H](C(=O)O)C3)c(C)n2)nnn1C` (racemic) [Example 23, (±)-trans-3-((2-methyl-6-(1-methyl-5-(((methyl(propyl)carbamoyl)oxy)methyl)-1H-1,2,3-triazol-4-yl)pyridin-3-yl)oxy)cyclopentanecarboxylic acid] showed an IC50 of 2040 nM. `Cc1nc(-c2onc(C)c2COC(=O)N(C)C2CCCC2)ccc1O[C@H]1CC[C@H](C(C)(C)C(=O)O)C1` (racemic) [Example 52, (±)-trans-2-[3-({6-[4-({[cyclopentyl(methyl)carbamoyl]oxy}methyl)-3-methyl-1,2-oxazol-5-yl]-2-methyl-pyridin-3-yl}oxy)cyclopentyl]-2-methylpropanoic acid] showed an IC50 of 8 nM. `Cc1noc(-c2ccc(O[C@H]3CC[C@H](C(=O)O)C3)cc2)c1NC(=O)O[C@H](C)c1ccccc1` (single isomer, unassigned) [Example 2] showed an IC50 of 31 nM. `Cc1noc(-c2ccc(O[C@H]3CC[C@@H](C(=O)O)C3)cc2)c1COC(=O)N(C)C1CCCC1` (racemic) [Example 71, (±)-cis-3-{4-[4-({[cyclopentyl(methyl)carbamoyl]oxy}methyl)-3-methyl-1,2-oxazol-5-yl]phenoxy}cyclopentane-1-carboxylic acid] was tested, and the IC50 was 205 nM. With `Cc1nc(-c2nnn(C)c2CNc2noc(CCC3CCC3)n2)ccc1O[C@H]1CC[C@H](CC(=O)O)C1` (racemic) [Example 80, (±)-2-(3-((6-(5-(((5-(2-cyclobutylethyl)-1,2,4-oxadiazol-3-yl)amino)methyl)-1-methyl-1H-1,2,3-triazol-4-yl)-2-methylpyridin-3-yl)oxy)cyclopentyl)acetic Acid] the IC50 was 108 nM.
